According to patent US8802597B2, “Herbicidal pyrimidines” (E I du Pont de Nemours and Company, priority 2003, dated 2014):

Assays:
Format in all cases: in vivo
wild oat (Avena fatua) = assay: Test B postemergence; conditions: for Oat, Wild plant response rating: scale 0 to 100 (0 no effect, 100 complete control); for Plant response rating, Oat, Wild: scale 0 to 100
Excerpt: (§1) Seeds selected from barnyardgrass (Echinochloa crus-galli), Surinam grass (Brachiaria decumbens), cocklebur (Xanthium strumarium), corn (Zea mays), crabgrass (Digitaria sanguinalis), giant foxtail (Setaria faberii), lambsquarters (Chenopodium album), morningglory (Ipomoea coccinea), pigweed (Amaranthus retroflexus), velvetleaf (Abutilon theophrasti), and wheat (Triticum aestivum) were planted and treated preemergence with test chemicals formulated in a non-phytotoxic solvent mixture which included a surfactant.
(§2) At the same time, plants selected from these crop and weed species and also blackgrass (Alopecurus myosuroides) and wild oat (Avena fatua) were treated with postemergence applications of test chemicals formulated in the same manner. Plants ranged in height from 2 to 18 cm (1- to 4-leaf stage) for postemergence treatments. Plant species in the flooded paddy test consisted of rice (Oryza sativa), umbrella sedge (Cyperus difformis), duck salad (Heteranthera limosa) and barnyardgrass (Echinochloa crus-galli) grown to the 2-leaf stage for testing. Treated plants and controls were maintained in a greenhouse for 13 to 15 days, after which time all species were compared to controls and visually evaluated. Plant response ratings, summarized in Table B, are based on a scale of 0 to 100 where 0 is no effect and 100 is complete control. A dash (-) response means no test result.

[1] = test system: blackgrass (Alopecurus myosuroides); assay: Test B postemergence; conditions: for Blackgrass plant response rating: scale 0 to 100 (0 no effect, 100 complete control); for Plant response rating, Blackgrass: scale 0 to 100
Excerpt: as §1, §2

[2] = test system: duck salad (Heteranthera limosa); assay: Test B flooded paddy test; conditions: Flood, 1000 g ai/ha; scale 0 to 100
Procedure: as §2

[3] = test system: umbrella sedge (Cyperus difformis); assay: Test B flooded paddy test; conditions: Flood, 1000 g ai/ha; scale 0 to 100
Procedure: as §2

rice (Oryza sativa) = assay: Test B flooded paddy test; conditions: Flood, 1000 g ai/ha; scale 0 to 100
Procedure: as §2

[4] = test system: barnyardgrass (Echinochloa crus-galli); assay: Test B flooded paddy test; conditions: Flood, 1000 g ai/ha; scale 0 (no effect) to 100 (complete control)
Procedure: as §2

[5] = test system: giant foxtail (Setaria faberii); assay: Test B pre/postemergence
Excerpt: as §1, §2

[6] = test system: pigweed (Amaranthus retroflexus); assay: Test B pre/postemergence
Excerpt: as §1, §2

[7] = test system: wheat (Triticum aestivum); assay: Test B pre/postemergence
Excerpt: as §1, §2

[8] = test system: crabgrass (Digitaria sanguinalis); assay: Test B pre/postemergence
Excerpt: as §1, §2

[9] = test system: velvetleaf (Abutilon theophrasti); assay: Test B pre/postemergence
Excerpt: as §1, §2

[10] = test system: Surinam grass (Brachiaria decumbens); assay: Test B pre/postemergence
Excerpt: as §1, §2

[11] = test system: morningglory (Ipomoea coccinea); assay: Test B pre/postemergence
Excerpt: as §1, §2

corn (Zea mays) = assay: Test B pre/postemergence
Excerpt: as §1, §2

[12] = test system: cocklebur (Xanthium strumarium); assay: Test B pre/postemergence
Excerpt: as §1, §2

[13] = test system: barnyardgrass (Echinochloa crus-galli); assay: Test B pre/postemergence
Excerpt: as §1, §2

[14] = test system: lambsquarters (Chenopodium album); assay: Test B pre/postemergence
Excerpt: as §1, §2

[15] = Postemergence, 125 g ai/ha, scale 0 to 100 (0 no effect, 100 complete control)
[16] = Postemergence, 500 g ai/ha, scale 0 to 100
[17] = Preemergence, 125 g ai/ha, scale 0 to 100 (0 no effect, 100 complete control)
[18] = Preemergence, 500 g ai/ha, scale 0 to 100 (0 no effect, 100 complete control)
[19] = Postemergence, 62 g ai/ha, scale 0 to 100 (0 no effect, 100 complete control)
[20] = Postemergence, 250 g ai/ha, scale 0 to 100
[21] = Preemergence, 62 g ai/ha, scale 0 to 100, 0 no effect, 100 complete control
[22] = Preemergence, 250 g ai/ha, scale 0 to 100 (0 no effect, 100 complete control)

CCOC(=O)Cc1nc(-c2ccc(Cl)cc2)nc(N)c1Br [Compound 41]
60: Plant response rating, Blackgrass ([1]; 500 g ai/ha) | Pigweed plant response rating [6, 18] | Lambsquarters plant response rating [14, 18]
10: Crabgrass plant response rating [8, 15] | Plant response rating, Velvetleaf [9, 17] | Plant response rating, Surinam Grass [10, 16] | Cocklebur plant response rating [12, 18] | Barnyardgrass plant response rating [13, 18]
0: Oat, Wild plant response rating (wild oat (Avena fatua); 125 g ai/ha) | Plant response rating, Oat, Wild (wild oat (Avena fatua); 500 g ai/ha) | Plant response rating, Rice (rice (Oryza sativa)) | Plant response rating, Barnyardgrass [4] | Plant response rating, Foxtail, Giant [5, 17] | Foxtail, Giant plant response rating [5, 18] | Plant response rating, Pigweed [6, 17] | Plant response rating, Wheat [7, 17] | Plant response rating, Crabgrass [8, 17] | Surinam Grass plant response rating [10, 15] | Surinam Grass plant response rating [10, 18] | Plant response rating, Morningglory [11, 17] | Plant response rating, Corn (corn (Zea mays); [17]) | Corn plant response rating (corn (Zea mays); [18]) | Plant response rating, Cocklebur [12, 17] | Plant response rating, Barnyardgrass [13, 17]
40: Plant response rating, Wheat [7, 16]
90: Plant response rating, Ducksalad [2] | Plant response rating, Pigweed [6, 16] | Plant response rating, Morningglory [11, 16] | Plant response rating, Lambsquarters [14, 16]
50: Velvetleaf plant response rating [9, 15]
70: Pigweed plant response rating [6, 15] | Plant response rating, Velvetleaf [9, 16] | Morningglory plant response rating [11, 15] | Cocklebur plant response rating [12, 15] | Plant response rating, Barnyardgrass [13, 16]
30: Plant response rating, Foxtail, Giant [5, 16] | Wheat plant response rating [7, 15] | Velvetleaf plant response rating [9, 18] | Plant response rating, Lambsquarters [14, 17]
20: Blackgrass plant response rating ([1]; 125 g ai/ha) | Foxtail, Giant plant response rating [5, 15] | Plant response rating, Wheat [7, 18] | Plant response rating, Crabgrass [8, 16] | Crabgrass plant response rating [8, 18] | Morningglory plant response rating [11, 18] | Corn plant response rating (corn (Zea mays); [15]) | Barnyardgrass plant response rating [13, 15]
80: Plant response rating, Sedge, Umbrella [3] | Plant response rating, Corn (corn (Zea mays); [16]) | Lambsquarters plant response rating [14, 15]

CCOC(OCC)c1nc(C2CC2)nc(N)c1Br [Compound 45]
30: Pigweed plant response rating [6, 19] | Plant response rating, Morningglory [11, 21] | Plant response rating, Lambsquarters [14, 20] | Plant response rating, Lambsquarters [14, 22]
40: Morningglory plant response rating [11, 19]
0: Oat, Wild plant response rating (wild oat (Avena fatua); 62 g ai/ha) | Plant response rating, Oat, Wild (wild oat (Avena fatua); 250 g ai/ha) | Blackgrass plant response rating ([1]; 62 g ai/ha) | Plant response rating, Blackgrass ([1]; 250 g ai/ha) | Plant response rating, Ducksalad [2] | Plant response rating, Sedge, Umbrella [3] | Plant response rating, Rice (rice (Oryza sativa)) | Plant response rating, Barnyardgrass [4] | Foxtail, Giant plant response rating [5, 19] | Plant response rating, Foxtail, Giant [5, 20] | Plant response rating, Foxtail, Giant [5, 21] | Plant response rating, Foxtail, Giant [5, 22] | Plant response rating, Pigweed [6, 21] | Wheat plant response rating [7, 19] | Plant response rating, Wheat [7, 20] | Plant response rating, Wheat [7, 21] | Plant response rating, Wheat [7, 22] | Crabgrass plant response rating [8, 19] | Plant response rating, Crabgrass [8, 21] | Plant response rating, Crabgrass [8, 22] | Velvetleaf plant response rating [9, 19] | Plant response rating, Velvetleaf [9, 21] | Plant response rating, Velvetleaf [9, 22] | Surinam Grass plant response rating [10, 19] | Plant response rating, Surinam Grass [10, 20] | Plant response rating, Surinam Grass [10, 21] | Plant response rating, Surinam Grass [10, 22] | Corn plant response rating (corn (Zea mays); [19]) | Plant response rating, Corn (corn (Zea mays); [20]) | Plant response rating, Corn (corn (Zea mays); [21]) | Cocklebur plant response rating [12, 19] | Plant response rating, Cocklebur [12, 22] | Barnyardgrass plant response rating [13, 19] | Plant response rating, Barnyardgrass [13, 20] | Plant response rating, Barnyardgrass [13, 21] | Plant response rating, Barnyardgrass [13, 22] | Plant response rating, Lambsquarters [14, 21]
60: Plant response rating, Morningglory [11, 20]
20: Plant response rating, Crabgrass [8, 20] | Plant response rating, Velvetleaf [9, 20]
10: Plant response rating, Cocklebur [12, 20] | Lambsquarters plant response rating [14, 19]
50: Plant response rating, Pigweed [6, 20] | Plant response rating, Pigweed [6, 22] | Plant response rating, Morningglory [11, 22]
